How the values were obtained:
[1] = test system: mouse myoblast cell line (C2C12 cells); test: Myotube thickness in dexamethasone-treated mouse myoblasts (Giemsa-Wright staining, ImageJ); format: cell-based; settings: 100 μM, vs dexamethasone alone; for increase in thickness of myotubes reduced by dexamethasone: co-treated with 50 μM dexamethasone for two days from day 4 of differentiation, quantified using ImageJ
Protocol: A mouse myoblast cell line (C2C12 cells) was purchased from ATCC (Manassas, Va., USA), and the purchased cells were incubated in a 5% CO2 incubator at 37° C. using 10% fetal bovine serum media (Gibco-BRL). When the confluency of the incubated cells became 80%, the myoblasts were allowed to differentiate into myotubes using 2% horse serum media (Gibco-BRL). The mouse myoblasts incubated in Preparation Example 1 were co-treated with 50 dexamethasone (dexa; Sigma) and 100 μM of sesquiterpene derivatives (experimental materials) for two days from day 4 of differentiation of the mouse myoblasts. An experiment was conducted in the same manner as in Example 1, except for treatment with 50 μM of dexamethasone (dexa; Sigma) instead of the sesquiterpene derivatives (experimental materials). […] When the fixing was completed, the myotubes were naturally dried at room temperature for 10 minutes, and then a Giemsa-Wright staining solution (Asan Pharmaceutical, Seoul), which specifically stains myotubes, was dropped onto the myotubes and left for 30 minutes to stain the myotubes. […] Six sections were randomly selected from each well and micrographed, and the thickness of at least […] myotubes from each well was analyzed (three repetitions/group).

p-4E-BP1 protein = test: Western blotting of p-4E-BP1 in dexamethasone-treated mouse myoblasts; format: cell-based; settings: 100 μM, co-treated with dexamethasone; FIG. 3A
Protocol: (§10) The mouse myoblasts incubated in Preparation Example 1 were co-treated with 50 dexamethasone (dexa; Sigma) and 100 μM of sesquiterpene derivatives (experimental materials) for two days from day 4 of differentiation of the mouse myoblasts. An experiment was conducted in the same manner as in Example 1, except for treatment with 50 μM of dexamethasone (dexa; Sigma) instead of the sesquiterpene derivatives (experimental materials). To perform western blotting on cells, a lysis buffer containing 500 μL of 100 mM Tris-HCl, pH 7.4, 5 mM EDTA, 50 mM sodium pyrophosphate, 50 mM NaF, 100 mM orthovanadate, 1% Triton X-100, 1 mM phenylmethanesulfonyl fluoride, 2 μg/mL of aprotinin, 1 μg/mL of pepstatin A, and 1 μg/mL of leupeptin was added to each well from which media were removed, the cells were harvested, and then centrifuged at 1,300×g and 4° C. for 20 minutes, and then the middle layer was taken, and the concentrations of proteins were quantified by the Bradford method (Bio-Rad). 40 μg of the quantified proteins were electrophoresed by SDS-polyacrylamide gel, and then the separated proteins were transferred to nitrocellulose membranes (Amersham, Buckinghamshire, UK). […] Bands visualized on the X-ray film were scanned and quantified using Quantity One analysis software (Bio-Rad).

p-p70S6K1 protein = test: Western blotting of p-p70S6K1 in dexamethasone-treated mouse myoblasts; format: cell-based; settings: 100 μM, co-treated with dexamethasone; FIG. 3A
Protocol: as §10

MuRF1 = test: RT-PCR of MuRF1 gene expression in dexamethasone-treated mouse myoblasts; format: cell-based; settings: 100 μM, co-treated with dexamethasone; FIG. 3B
Protocol: (§1) A mouse myoblast cell line (C2C12 cells) was purchased from ATCC (Manassas, Va., USA), and the purchased cells were incubated in a 5% CO2 incubator at 37° C. using 10% fetal bovine serum media (Gibco-BRL). When the confluency of the incubated cells became 80%, the myoblasts were allowed to differentiate into myotubes using 2% horse serum media (Gibco-BRL).
(§2) The mouse myoblasts incubated in Preparation Example 1 were co-treated with 50 dexamethasone (dexa; Sigma) and 100 μM of sesquiterpene derivatives (experimental materials) for two days from day 4 of differentiation of the mouse myoblasts.
(§3) An experiment was conducted in the same manner as in Example 1, except for treatment with 50 μM of dexamethasone (dexa; Sigma) instead of the sesquiterpene derivatives (experimental materials).
(§4) 334 μl of a TRIzol solution per 1×10^7 mouse myoblasts of Example 1 was added and replaced, followed by centrifugation at 12,000×g and 4° C. for 10 minutes. The supernatant was transferred to a new tube and then 67 μl of chloroform was added thereto, followed by vortexing. […] The concentration of the extracted RNA samples was measured at wavelengths of 260 nm and 280 nm using a UV/VIS spectrometer (Beckman Coulter, DU730), and was subjected to agarose gel electrophoresis to confirm the integrity of RNA samples. […]

MaFbx/atrogin1 = test: RT-PCR of MaFbx/atrogin1 gene expression in dexamethasone-treated mouse myoblasts; format: cell-based; settings: 100 μM, co-treated with dexamethasone; FIG. 3B
Protocol: as §1, §2, §3, §4

C57BL/6N mice [2] = test: Grip strength test; format: in vivo, mouse; settings: 200 mpk orally once a day, week 12 of breeding
Source text: (§5) 32 5-week-old male C57BL/6N mice (Orient, Korea) were adapted to a laboratory environment for one week with a commercial normal diet (rodent chow), and then randomly divided into four groups (chow vehicle group, chow α-cedrene group, HFD vehicle group, and HFD α-cedrene group) according to a randomized block design and bred for a total of 10 weeks.
(§6) While mice bred in Preparation Example 2 were fed a normal diet for 10 weeks, 200 mpk α-cedrene was orally administered to the mice once a day.
A procedure was carried out in the same manner as in Example 2, except that the mice were fed a high-fat experimental diet (HFD: 40% high fat energy, 17 g lard+3% corn oil/100 g diet). […]
The grip strength of the mice of Examples 2 and 3 and Comparative Examples 2 and 3 was measured at week 12 of breeding using a grip strength meter for mice (DJ2-248, Daejong Instrument Industry Co., Ltd., Korea). In particular, a force (N) for mice to hold onto a wire mesh was measured while mounting the four feet of mice on a wire mesh to which a gauge was attached, and pulling the tails of the mice backward. The measurement was successively performed five times, and the maximum value was determined as grip strength. To normalize the experimental results, grip strength (N) divided by body weight […] was calculated.

C57BL/6N mice [3] = test: Four limb hanging test; format: in vivo, mouse; settings: 200 mpk orally once a day; for hanging time: FIG. 5A; for hanging time multiplied by body weight: FIG. 5B
Source text: as §5, §6
(§7) A procedure was carried out in the same manner as in Example 2, except that the mice were fed a high-fat experimental diet (HFD: 40% high fat energy, 17 g lard+3% corn oil/100 g diet).
(§8) A procedure was carried out in the same manner as in Example 2, except that a vehicle was orally administered instead of 200 mpk α-cedrene, while a commercial normal diet (rodent chow) was ingested.
(§9) A procedure was carried out in the same manner as in Comparative Example 2, except that a high-fat diet (HFD: 40% high fat energy) was ingested.
To measure the limb muscle strength of mice, the time that the mice of Examples 2 and 3 and Comparative Examples 2 and 3 hung upside down using their four feet was measured at week 12 of breeding. The time (seconds) that the mice hung upside down in a cage equipped with a wire mesh cover (diameter <0.5 cm) (20×30×50 cm, Jeung-Do Bio & Plant Co., Ltd, Korea) was measured a total of three times, and a rest period of 30 minutes or longer was given between measurements. Experimental results were obtained by multiplying hanging time (sec) by body weight (kg).

mouse gastrocnemius = test: H&E staining of muscle tissue, fiber diameter; format: in vivo; settings: 200 mpk orally once a day, vs vehicle
Source text: as §5, §6, §7, §8, §9
Muscle tissues of mice were extracted, fixed in 10% formalin, and then stained with hematoxylin and eosin (H&E) after requesting Korea CFC (Gyeonggi-do, Korea) to do so, and observed using an optical microscope (IX71, Olympus, JPN) and photographed using a digital camera (DP71, Olympus, JPN).

[4] = high-fat diet, vs HFD vehicle group
[5] = normal diet, vs chow vehicle group

`C[C@@H]1CC[C@H]2C(C)(C)[C@H]3C[C@@]12CC[C@@]3(C)O` [cedrol] was tested, and the “increase in thickness of myotubes reduced by dexamethasone” value [1] was 40%.
With `C=C1CC[C@@]23C[C@@H]1C(C)(C)C2CC[C@H]3C` (stereo partly drawn) [β-cedrene] the “increase in thickness of myotubes reduced by dexamethasone” value [1] was 36%.
In the case of `CC1=CCC23CC1C(C)(CO)C2CCC3C` (centres unmarked) [cedrenol], the “increase in thickness of myotubes reduced by dexamethasone” value [1] is reported as 43%.
For `CC(=O)O[C@]1(C)CC[C@@]23C[C@@H]1C(C)(C)[C@@H]2CC[C@H]3C` [cedryl acetate], the “increase in thickness of myotubes reduced by dexamethasone” value [1] was 51%.
For `CC1=CC[C@@]23C[C@@H]1C(C)(C)C2CC[C@H]3C` (stereo partly drawn) [cedrene, α-cedrene], the “increase in thickness of myotubes reduced by dexamethasone” value [1] was 58%, the “thickness of myotubes reduced by dexamethasone (visually confirmed, FIG. 1A)” value ([1]; co-treated with dexamethasone) was “increased” and the “amount of p-4E-BP1 protein reduced by dexamethasone” value (p-4E-BP1 protein) was “significantly increased”. For the same molecule, the “amount of p-p70S6K protein reduced by dexamethasone” value (p-p70S6K1 protein) was “significantly increased”, the “expression of MuRF1” value (MuRF1) was “significantly reduced” and the “expression of MaFbx/atrogin1” value (MaFbx/atrogin1) was “significantly reduced”. The “increase in grip strength” value (C57BL/6N mice [2]; [4]) was 31%, the “increase in grip strength” value (C57BL/6N mice [2]; [5]) was 26% and the hanging time (C57BL/6N mice [3]; [4]) was “significantly increased”. For the same molecule, the “hanging time multiplied by body weight” value (C57BL/6N mice [3]; [4]) was “significantly increased”, the hanging time (C57BL/6N mice [3]; [5]) was “significantly increased” and the “hanging time multiplied by body weight” value (C57BL/6N mice [3]; [5]) was “significantly increased”. The “increase in fiber diameter of the mouse gastrocnemius” value (mouse gastrocnemius; CHOW group) was 21% and the “increase in fiber diameter of the mouse gastrocnemius” value (mouse gastrocnemius; HFD group) was 27%.
For `CC(=O)C1=C(C)[C@@H]2C[C@@]3(C1)[C@H](C)CC[C@H]3C2(C)C` [methyl cedryl ketone], the “increase in thickness of myotubes reduced by dexamethasone” value [1] was 32%.
`C[C@@H]1CC[C@H]2C(C)(C)[C@H]3C[C@@]12CC1OC13C` (some centres unmarked) [cedrene epoxide] was tested, and the “increase in thickness of myotubes reduced by dexamethasone” value [1] was 38%.

— patent US20210369640A1, “COMPOSITION CONTAINING SESQUITERPENE DERIVATIVE AS ACTIVE INGREDIENT FOR PREVENTION OR TREATMENT OF MUSCLE DISEASES” (INDUSTRY-ACADEMIC COOPERATION FOUNDATION, YONSEI UNIVERSITY, priority 2017, published 2021)
